“Also recorded” adds a separate entry of the source. Where no end group is shown, it is not given here.

Broadly, the half-life is how long it takes for the measured level to halve.

The nature of series [1]: Plasma stability at 37° C., mouse plasma. Type of series: in vitro ADME. On the procedure:
(§1) Plasma Stability in Mouse, Rat and Human Plasma at 37° C.
(§2) Plasma: mouse (C57 Black 6 Male), rat (Sprague Dawley) and human containing heparin as an anti-coagulant.
(§3) Plasma samples in duplicate were incubated with peptide at 3 μM in a 600 μl volume at 37° C. with shaking. 50 μl aliquots were withdrawn after 2, 5, 30, 60 and 120 mins and quenched into 150 μl of ice-cold methanol containing the internal standard (tolbutamide). Samples were stored at −20° C. for 2 hours to allow protein precipitation. Samples were then centrifuged at 2500×g and the resulting supernatants transferred to a 96 well plate for LC-MS/MS analysis. Thalf was calculated in all matrices for each peptide.

Series [2] in a line: Plasma stability at 37° C., rat plasma. Type of series: in vitro ADME. Here is the method:
as §1, §2, §3

The nature of series [3]: Plasma stability at 37° C., human plasma. The class given is in vitro ADME. On the procedure: as §1, §2, §3
Series [4] concerns LPS induced lung neutrophil influx. Description: LPS mouse model of lung inflammation (BAL neutrophil count). Type of series: in vivo. The note with it: for efficacy against LPS induced lung neutrophil influx: 50 pg/mouse i.v.
A short description of series [5]: Plasma stability, overall statements for mouse, rat and human plasma. Type of series: in vitro ADME. The following applies: for plasma stability / half-life (Th) compared with parent peptide SEQ ID NO: 17: rat and human plasma. On the procedure: as §1, §2, §3
In series [6] the test system is recruitment of eosinophils. The note with it: animal model of allergic airway inflammation; from WO2009106819; cited from earlier work.
Where [7] appears, read: Table 7, same conditions as Example 3, read-out: Plasma half life Mouse.
Setting [8] is: Table 7, same conditions as Example 3, read-out: Plasma half life Rat.
The mark [9] stands for this setting: Table 7, same conditions as Example 3, read-out: Plasma half life Man.
The mark [10] stands for this setting: Table 4, read-out: Plasma half life Mouse.
Setting [11] is: Table 4, read-out: Plasma half life Rat.
Where [12] appears, read: Table 4, read-out: Plasma half life Man.

Turning to `CC(C)C[C@H](NC(=O)CNC(=O)[C@H](N)Cc1c[nH]cn1)C(=O)N[C@@H](CC(N)=O)C(=O)N[C@H](C(=O)N[C@@H](CC(N)=O)C(=O)N[C@H](C(=O)N[C@@H](CC(C)C)C(=O)N[C@@H](CO)C(=O)N[C@@H](Cc1ccc(O)cc1)C(=O)NCC(=O)N[C@H](CC(=O)O)C(N)=O)[C@@H](C)O)C(C)C` [SEQ ID NO: 14, hGLNVNTLSYGd-NH2], the half-life in series [1] (setting [7]) amounted to 0.833 h; in series [2] (setting [8]), 2.55 h; in series [3] (setting [9]) it was 2.58 h.
In the same order, the values of `CC(C)C[C@H](NC(=O)CNC(=O)[C@@H](N)Cc1c[nH]cn1)C(=O)N[C@@H](CC(N)=O)C(=O)N[C@H](C(=O)N[C@@H](CC(N)=O)C(=O)N[C@H](C(=O)N[C@@H](CC(C)C)C(=O)N[C@@H](CO)C(=O)N[C@@H](Cc1ccc(O)cc1)C(=O)NCC(=O)N[C@H](CC(=O)O)C(N)=O)[C@@H](C)O)C(C)C` [SEQ ID NO: 15, HGLNVNTLSYGd-NH2] are 0.65 h, 3.03 h and 1.4 h.
Consider `CC(C)C[C@H](NC(=O)CNC(=O)[C@H](N)Cc1c[nH]cn1)C(=O)N[C@@H](CC(N)=O)C(=O)N[C@H](C(=O)N[C@@H](CC(N)=O)C(=O)N[C@H](C(=O)N[C@@H](CC(C)C)C(=O)N[C@@H](CO)C(=O)N[C@@H](Cc1ccc(O)cc1)C(=O)NCC(=O)N[C@@H](CC(=O)O)C(N)=O)[C@@H](C)O)C(C)C` [SEQ ID NO: 16, hGLNVNTLSYGD-NH2], for which the half-life in series [1] (setting [7]) turned out to be 0.583 h; in series [2] (setting [8]), 3.33 h; in series [3] (setting [9]), 1.85 h.
`CC(C)C[C@H](NC(=O)CNC(=O)[C@@H](N)Cc1c[nH]cn1)C(=O)N[C@@H](CC(N)=O)C(=O)N[C@H](C(=O)N[C@@H](CC(N)=O)C(=O)N[C@H](C(=O)N[C@@H](CC(C)C)C(=O)N[C@@H](CO)C(=O)N[C@@H](Cc1ccc(O)cc1)C(=O)NCC(=O)N[C@@H](CC(=O)O)C(N)=O)[C@@H](C)O)C(C)C` [SEQ ID NO: 17, HGLNVNTLSYGD-NH2]: in series [4] (different doses (0.5, 5 or 50 pg/mouse)), the “effect on LPS induced lung neutrophil influx (number of neutrophils)” value was “reduction in the number of neutrophils”. The half-life in series [1] (Table 3, 37° C., peptide 3 μM, read-out: Plasma Half Life (Th) Mouse) is 0.333 h; in series [2] (Table 3, 37° C., peptide 3 μM, read-out: Plasma Half Life (Th) Rat) it was 0.717 h; in series [3] (Table 3, 37° C., peptide 3 μM, read-out: Plasma Half Life (Th) Man), 1.2 h.
In the case of `CC(=O)N[C@H](CC(=O)O)C(=O)NCC(=O)N[C@H](Cc1ccc(O)cc1)C(=O)N[C@H](CO)C(=O)N[C@H](CC(C)C)C(=O)N[C@@H](C(=O)N[C@H](CC(N)=O)C(=O)N[C@@H](C(=O)N[C@H](CC(N)=O)C(=O)N[C@H](CC(C)C)C(=O)NCC(=O)N[C@H](Cc1c[nH]cn1)C(N)=O)C(C)C)[C@H](C)O` [SEQ ID NO: 19, Ac-dGysltnvnlGh-NH2], the half-life in series [1] (setting [7]), in series [2] (setting [8]) and in series [3] (setting [9]) was over 6 h in each case. In addition, the “plasma stability / half-life (Th) compared with parent peptide SEQ ID NO: 17” value in series [5] is given as “enhanced plasma stability”.
`CC(=O)N[C@H](Cc1c[nH]cn1)C(=O)NCC(=O)N[C@H](CC(C)C)C(=O)N[C@H](CC(N)=O)C(=O)N[C@@H](C(=O)N[C@H](CC(N)=O)C(=O)N[C@@H](C(=O)N[C@H](CC(C)C)C(=O)N[C@H](CO)C(=O)N[C@H](Cc1ccc(O)cc1)C(=O)NCC(=O)N[C@H](CC(=O)O)C(N)=O)[C@H](C)O)C(C)C` [SEQ ID NO: 20, Ac-hGlnvntlsyGd-NH2]: the half-life in series [1] (setting [7]) is over 6 h; in series [2] (setting [8]), 3.03 h; in series [3] (setting [9]) it was over 6 h. In addition, the “plasma stability / half-life (Th) compared with parent peptide SEQ ID NO: 17” value in series [5] was “enhanced plasma stability”.
Regarding `CC(C)C[C@@H]1NC(=O)CNC(=O)[C@H](Cc2c[nH]cn2)NC(=O)[C@H](CC(=O)O)NC(=O)CNC(=O)[C@H](Cc2ccc(O)cc2)NC(=O)[C@H](CO)NC(=O)[C@H](CC(C)C)NC(=O)[C@H]([C@@H](C)O)NC(=O)[C@H](CC(N)=O)NC(=O)[C@H](C(C)C)NC(=O)[C@H](CC(N)=O)NC1=O` [SEQ ID NO: 25, cyclic-HGLNVNTLSYGD-], the results for the half-life in series [1] (setting [7]), in series [2] (setting [8]) and in series [3] (setting [9]) were 0.167 h, 0.35 h and 0.75 h, respectively. Further, in series [5], the “plasma stability / half-life (Th) compared with parent peptide SEQ ID NO: 17” value is recorded as “did not improve plasma stability”.
With “H-DGSVVVNKVSEL-NH2 [SEQ ID NO: 3, DGSVVVNKVSEL-NH2]”, the “efficacy against LPS induced lung neutrophil influx” value in series [4] (dosed up to 60 mins prior to LPS challenge (FIG. 2)) and in series [4] (dosed up to 120 mins post LPS challenge (FIG. 3)) was “efficacious” in each case. In addition, the “efficacy in the LPS mouse model” value in series [4] (dosed intravenously) is given as “effective”.
In the case of “H-DGSVVVNKVSELPAGHGLNVNTLSYGDLAAD [SEQ ID NO: 1, reference compound]”, in series [4] (dosed intravenously immediately prior to LPS challenge), the “inhibition of LPS induced lung neutrophil influx” value is reported as “significant inhibition; also recorded: only demonstrates efficacy when dosed immediately prior to LPS challenge”. For the same compound, the “activity against LPS induced lung neutrophil influx” value in series [4] (i.v., given at earlier (FIG. 1) or later (FIG. 4) time points than LPS challenge) is “looses its activity”. For the same compound, the recruitment of eosinophils result in series [6] is “significantly reduce the recruitment of eosinophils”.
On to “H-GLNVNTLSYGDLAAD [SEQ ID NO: 23, GLNVNTLSYGDLAAD, reference compound]”, for which the values for the half-life in series [1] (setting [10]), in series [2] (setting [11]) and in series [3] (setting [12]) were 1.03 h, over 5.13 h and over 5.62 h, respectively.
The like results for “H-SELPAGHGLNVNTLS [SEQ ID NO: 5, SELPAGHGLNVNTLS]” were, in that order, 0.2 h, 1.32 h and 1.85 h.
As for H-SELPAGHGLNVNTLSYGDLAAD [SEQ ID NO: 4], in series [4] (0.5, 5 and 500 pg/dose (FIG. 7)), the “in vivo efficacy in the mouse LPS lung inflammation model” value is reported as “maintained in vivo efficacy”. The half-life was over 6 h in series [1] (Table 5, read-out: Plasma half-life Mouse); over 6 h in series [2] (Table 5, read-out: Plasma half-life Rat); over 6 h in series [3] (Table 5, read-out: Plasma half-life Man). Besides, the “plasma half-life compared with fragment 3 (SEQ ID NO: 5)” value in series [5] (rat and human plasma (Table 5 vs Table 4)) was “superior half-life”.

Source of the values: patent publication US11098090B2, “Mycobacteria tuberculosis chaperonin 60.1 peptides and uses thereof” (Revolo Biotherapeutics Limited, priority 2017, dated 2021).
